Assay results: patent US20210009542A1 (Calico Life Sciences LLC, priority 2018, published 2021)
Where two headings read alike, the source gives them in different places.

Legend:
[1] = molecular target: T1, His tagged PTPN2 (TC45) protein (Homo sapiens, UniProt P17706); experiment: Mobility shift assay (MSA) for potency of PTPN2 inhibitors; format: biochemical; details: read-out: PTPN2 MSA IC50
T1 construct: made in house
T1 sequence (P17706 with tags, fused parts or gaps isoform P17706-2): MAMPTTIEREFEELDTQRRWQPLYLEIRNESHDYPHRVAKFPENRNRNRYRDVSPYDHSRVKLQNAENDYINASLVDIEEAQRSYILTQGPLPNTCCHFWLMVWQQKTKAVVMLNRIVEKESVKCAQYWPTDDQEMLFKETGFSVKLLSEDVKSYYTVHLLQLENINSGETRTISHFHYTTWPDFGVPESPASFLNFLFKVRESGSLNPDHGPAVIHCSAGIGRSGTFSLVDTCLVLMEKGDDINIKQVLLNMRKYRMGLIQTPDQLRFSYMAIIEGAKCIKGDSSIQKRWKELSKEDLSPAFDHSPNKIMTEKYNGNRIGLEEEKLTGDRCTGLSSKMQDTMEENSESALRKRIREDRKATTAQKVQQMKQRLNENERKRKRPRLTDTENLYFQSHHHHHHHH
How it was run: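 His-tagged PTPN2 TC45 (0.5 nM) was preincubated with compound (12-point, 1:3) for 10 min at room temperature in 50 mM HEPES pH 7.5, 1 mM EGTA, 10 mM EDTA, 0.01% Tween 20, 2 mM DTT. OG488-labelled phospho-insulin-receptor peptide ([…]) was then added for 10 min. After quenching, dephosphorylation was measured by microfluidic mobility shift and IC50 derived from % inhibition.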

[2] = tested on: B16F10 mouse melanoma cells; experiment: B16F10 IFNγ-induced cellular growth inhibition assay; format: cell-based; details: Mus musculus, B16-F10, 33 μM compound
Description: B16F10 mouse melanoma cells (ATCC Cat ^#CRL-6475, Manassas, Va.) were seeded at a density of 500 cells per well in a 384-well clear bottom plate (Corning Cat^# 3765, Corning, N.Y.) in 25 μL total volume of DMEM+10% FBS (Sigma Cat ^#D6429 and Sigma Cat ^#F4135, St. Louis, Mo.). Cells were allowed to adhere overnight at 37° C.+5% CO2. On the following day, 12.5 μL of mouse IFNγ (RD systems Cat485-MI/CF, Minneapolis, Minn.) was added to half of the plate (columns 13-24) at a concentration of 2 ng/mL for a final assay concentration of 0.5 ng/mL of IFNγ. Media only (12.5 μL of DMEM+10% FBS) was added to the remainder of the plate (columns 1-12). Next, compounds resuspended in DMSO (Sigma Cat ^#D2650) at 100 mM were diluted in semi-log dilutions in DMSO ranging from 100 mM to 0.001 mM and DMSO only controls were included. The compound/DMSO dilutions were further diluted 1:250 in DMEM+10% FBS, and 12.5 μL of these dilutions were added in triplicates to cells of both treatment arms (with and without IFNγ). Final compound concentrations ranged from 100 μM to 0.001 μM with a final DMSO concentration of 0.1%. Compounds were only dosed in the inner 240 wells, avoiding the outer 2-well perimeter of the plate to minimize edge effects. Finally, the plate was loaded into an IncuCyte® S3 Live Cell Analysis System (Essen Bioscience-Sartorius, Ann Arbor, Mich.) maintained in a 37° C.+5% CO2 incubator, allowed to equilibrate for 2 hours, and imaged every 6 hours for 5 days. Confluence over time for compound dilutions in the presence and absence of IFNγ was measured. Growth inhibition values were obtained when the “DMSO/no IFNγ” control reached confluence >95%. At these time points, the percent growth inhibition of each compound at the indicated concentration was calculated relative to the “DMSO/with IFNγ” control.

[3] = +0.5 ng/mL IFNγ, relative to DMSO control, read-out: % B16F10 growth inhibition (+0.5 ng/mL IFNγ) @ 33 μM
[4] = no IFNγ, read-out: % B16F10 growth inhibition (no IFNγ) @ 33 μM

Row | Structure (SMILES) | IC50 [1] | inhibition at 33 µM [2, 3] | inhibition at 33 µM [2, 4]
1 | O=C(COc1ccc2cc(O)c(N3CC(=O)NS3(=O)=O)c(F)c2c1)NCCC1CC1 [Compound 281, N-(2-cyclopropylethyl)-2-{[8-fluoro-6-hydroxy-7-(1,1,4-trioxo-1λ^6,2,5-thiadiazolidin-2-yl)naphthalen-2-yl]oxy}acetamide] | 1 to 10 nM | 25 to 59% | < 25%
2 | O=C1CN(c2c(O)cc3ccc(O)cc3c2F)S(=O)(=O)N1 [Compound 276, 5-(1-fluoro-3,7-dihydroxynaphthalen-2-yl)-1λ^6,2,5-thiadiazolidine-1,1,3-trione] | 1 to 10 nM | 25 to 59% | < 25%
3 | O=C1CN(c2c(O)cc3ccc(OCC4CC(F)(F)C4)cc3c2F)S(=O)(=O)N1 [Compound 235, 5-{7-[(3,3-difluorocyclobutyl)methoxy]-1-fluoro-3-hydroxynaphthalen-2-yl}-1λ^6,2,5-thiadiazolidine-1,1,3-trione] | 1 to 10 nM | 60 to 90% | < 25%
4 | O=C1CN(c2c(O)cc3ccc(OC4COC4)cc3c2F)S(=O)(=O)N1 [Compound 274, 5-{1-fluoro-3-hydroxy-7-[(oxetan-3-yl)oxy]naphthalen-2-yl}-1λ^6,2,5-thiadiazolidine-1,1,3-trione] | 1 to 10 nM | 60 to 90% | < 25%
5 | CNCC(C)(C)CCOc1ccc2cc(O)c(N3CC(=O)NS3(=O)=O)c(F)c2c1 [Compound 163, 5-{7-[3,3-dimethyl-4-(methylamino)butoxy]-1-fluoro-3-hydroxynaphthalen-2-yl}-1λ^6,2,5-thiadiazolidine-1,1,3-trione] | < 1 nM | > 90% | < 25%
6 | CC(C)CCOc1ccc2cc(O)c(N3CC(=O)NS3(=O)=O)c(F)c2c1 [Compound 204, 5-[1-fluoro-3-hydroxy-7-(3-methylbutoxy)naphthalen-2-yl]-1λ^6,2,5-thiadiazolidine-1,1,3-trione] | < 1 nM | 60 to 90% | < 25%
7 | O=C1CN(c2c(O)cc3ccc(OCC4CCNCC4)cc3c2F)S(=O)(=O)N1 [Compound 114, 5-{1-fluoro-3-hydroxy-7-[(piperidin-4-yl)methoxy]naphthalen-2-yl}-1λ^6,2,5-thiadiazolidine-1,1,3-trione] | 1 to 10 nM | 60 to 90% | < 25%
8 | CCCOc1ccc2cc(O)c(N3CC(=O)NS3(=O)=O)c(F)c2c1 [Compound 278, 5-(1-fluoro-3-hydroxy-7-propoxynaphthalen-2-yl)-1λ^6,2,5-thiadiazolidine-1,1,3-trione] | 1 to 10 nM | 60 to 90% | < 25%
9 | CCS(=O)(=O)N1CC=C(c2ccc3cc(O)c(N4CC(=O)NS4(=O)=O)c(F)c3c2)C1 [Compound 295, 5-{7-[1-(ethanesulfonyl)-2,5-dihydro-1H-pyrrol-3-yl]-1-fluoro-3-hydroxynaphthalen-2-yl}-1λ^6,2,5-thiadiazolidine-1,1,3-trione] | < 1 nM | > 90% | < 25%
10 | CCOCCCOc1ccc2cc(O)c(N3CC(=O)NS3(=O)=O)c(F)c2c1 [Compound 216, 5-[7-(3-ethoxypropoxy)-1-fluoro-3-hydroxynaphthalen-2-yl]-1λ^6,2,5-thiadiazolidine-1,1,3-trione] | 1 to 10 nM | 25 to 59% | < 25%
11 | O=C1CN(c2c(O)cc3ccc(OCCN4CCC4)cc3c2F)S(=O)(=O)N1 [Compound 105, 5-{7-[2-(azetidin-1-yl)ethoxy]-1-fluoro-3-hydroxynaphthalen-2-yl}-1λ^6,2,5-thiadiazolidine-1,1,3-trione] | 1 to 10 nM | 60 to 90% | < 25%
12 | O=C1CN(c2c(O)cc3ccc(OC4CN(S(=O)(=O)C5CC5)C4)cc3c2F)S(=O)(=O)N1 [Compound 178, 5-(7-{[1-(cyclopropanesulfonyl)azetidin-3-yl]oxy}-1-fluoro-3-hydroxynaphthalen-2-yl)-1λ^6,2,5-thiadiazolidine-1,1,3-trione] | 1 to 10 nM | 60 to 90% | < 25%
13 | CP(C)(=O)N1CC=C(c2ccc3cc(O)c(N4CC(=O)NS4(=O)=O)c(F)c3c2)C1 [Compound 168, 5-{7-[1-(dimethylphosphoryl)-2,5-dihydro-1H-pyrrol-3-yl]-1-fluoro-3-hydroxynaphthalen-2-yl}-1λ^6,2,5-thiadiazolidine-1,1,3-trione] | < 1 nM | > 90% | < 25%
14 | CC(C)CS(=O)(=O)N1CC=C(c2ccc3cc(O)c(N4CC(=O)NS4(=O)=O)c(F)c3c2)C1 [Compound 300, 5-{1-fluoro-3-hydroxy-7-[1-(2-methylpropane-1-sulfonyl)-2,5-dihydro-1H-pyrrol-3-yl]naphthalen-2-yl}-1λ^6,2,5-thiadiazolidine-1,1,3-trione] | < 1 nM | 60 to 90% | < 25%
15 | O=C1CN(c2c(O)cc3ccc(NCCC4CC4)cc3c2F)S(=O)(=O)N1 [Compound 224, 5-{7-[(2-cyclopropylethyl)amino]-1-fluoro-3-hydroxynaphthalen-2-yl}-1λ^6,2,5-thiadiazolidine-1,1,3-trione] | 1 to 10 nM | > 90% | < 25%
16 | CC(C)(N)CCOc1ccc2cc(O)c(N3CC(=O)NS3(=O)=O)c(F)c2c1 [Compound 165, 5-[7-(3-amino-3-methylbutoxy)-1-fluoro-3-hydroxynaphthalen-2-yl]-1λ^6,2,5-thiadiazolidine-1,1,3-trione] | 1 to 10 nM | > 90% | < 25%
17 | O=C1CN(c2c(O)cc3ccc(OCCOC4CCC4)cc3c2F)S(=O)(=O)N1 [Compound 214, 5-{7-[2-(cyclobutyloxy)ethoxy]-1-fluoro-3-hydroxynaphthalen-2-yl}-1λ^6,2,5-thiadiazolidine-1,1,3-trione] | 1 to 10 nM | 60 to 90% | < 25%
18 | CC(C)C/C=C/c1ccc2cc(O)c(N3CC(=O)NS3(=O)=O)c(F)c2c1 [Compound 240, 5-{1-fluoro-3-hydroxy-7-[(1E)-4-methylpent-1-en-1-yl]naphthalen-2-yl}-1λ^6,2,5-thiadiazolidine-1,1,3-trione] | 1 to 10 nM | 25 to 59% | < 25%
19 | COCCCOc1ccc2cc(O)c(N3CC(=O)NS3(=O)=O)c(F)c2c1 [Compound 247, 5-[1-fluoro-3-hydroxy-7-(3-methoxypropoxy)naphthalen-2-yl]-1λ^6,2,5-thiadiazolidine-1,1,3-trione] | 1 to 10 nM | 60 to 90% | < 25%
20 | N#CC1(CNc2ccc3cc(O)c(N4CC(=O)NS4(=O)=O)c(F)c3c2)CC1 [Compound 181, 1-({[8-fluoro-6-hydroxy-7-(1,1,4-trioxo-1λ^6,2,5-thiadiazolidin-2-yl)naphthalen-2-yl]amino}methyl)cyclopropane-1-carbonitrile] | 1 to 10 nM | 60 to 90% | < 25%
21 | O=C1CN(c2c(O)cc3ccc(OCCC(F)(F)F)cc3c2F)S(=O)(=O)N1 [Compound 180, 5-[1-fluoro-3-hydroxy-7-(3,3,3-trifluoropropoxy)naphthalen-2-yl]-1λ^6,2,5-thiadiazolidine-1,1,3-trione] | 1 to 10 nM | 60 to 90% | < 25%
